Measurements as given in patent US10722584B2, “Increasing the bioavailability of flavan-3-ols by polyphenols” (NESTEC S.A., priority 2012, dated 2020).

Design: species or system human
Settings: in vivo
From the text: Method: 12 healthy male (20-50 yrs) were enrolled in a randomized and double blind crossover design of four treatments with a minimum of 1 week wash-out period between each treatment was applied.
In the present invention, only 2 treatments are object of investigation: green tea extract (control) and green tea extract+hesperitin 7-glucoside (intervention).
Each treatment was formulated to contain 1 g equivalent of Choladi green tea extract. Subjects in the intervention group received a mixture of 1 g of green tea extract and 100 mg of hesperitin-7-glucoside.
After ingestion, plasma was collected over 24 h. Plasma EGCG analyses were performed by HPLC coupled with an electrochemical detection.
EGCG bioavailability was calculated from plasma kinetics by measuring the Area Under its concentration-time Curve (AUC).

absorption of EGCG when flavan-3-ols are co-administered: significantly enhanced
SMILES: COc1ccc([C@@H]2CC(=O)c3c(O)cc(O[C@@H]4O[C@H](CO)[C@@H](O)[C@H](O)[C@H]4O)cc3O2)cc1O [hesperitin 7-glucoside]
